Read-outs that look alike come from different tables or passages of the source.
Experiments:
[1] = tested on: deposition of melanin pigment on the skin induced by the UV light irradiation; experiment: Animal test for the confirmation of whitening effect (UV-induced skin pigmentation, test feed); assay type: in vivo, Brown guinea pigs; conditions: 500.0 mg/kg feed, free ingestion, 4 weeks; for Evaluation Results CI: number of 7 animals ranked Conspicuous Imp.; for Evaluation Results MI: number of 7 animals ranked Medium Imp.; for Evaluation Results NC: number of 7 animals ranked No Change; for Evaluation Results SI: number of 7 animals ranked Slight Imp.
Description: More specifically, the whitening effect can be evaluated by removing a half of the hair on the back of each brown guinea pig, keeping these animals over 2 weeks while irradiating the hair-removed area with a UV lamp, dividing these guinea pigs into groups in such a manner that there is not any difference in the degree of the melanin pigmentation induced by the UN light irradiation, allowing the animals in each group to freely take a test food comprising a feed having a low vitamin C content to which a variety of triterpenes have been added and keeping these animals over additional 4 weeks to evaluate the degree of skin pigmentation while comparing the same with those observed for a control group and for a positive control group.
Brown guinea pigs (5-week-old male animals) were preliminarily kept for one week using a commercially available feed (CG-7 available from Nippon Kurea Company), a half of the hair on the back was removed and the hair-removed portion on the back was irradiated with light rays emitted from a UV lamp of 1.2 mW for 5 minutes on the 1st day and then with light rays emitted from a UV lamp of 1.0 mW for 5 minutes on the 2nd and 3rd days. Subsequently, these animals were kept over 2 weeks using a feed having a low vitamin C content (200.0 mg/kg feed), these guinea pigs were divided into 12 groups (comprising 7 animals each) in such a manner that there was not observed any difference in the degree of deposition of melanin pigment on the skin induced by the UV light irradiation between groups and then the animals were allowed to freely ingest each test feed comprising the feed having a low vitamin C content to which each triterpene had been added in an amount specified in the following Table 2. In this respect, however, the vitamin C-deficient feed per se was supplied to the control group and a vitamin C-supplemented feed was supplied to the positive control group. After 4 weeks from the supply of the test feed, the degree of the pigmentation of the skin was evaluated according to the following criteria.

[2] = tested on: B-16 melanoma cells; experiment: Evaluation of melanin production-inhibitory function (degree of whiteness of cultured cells); assay type: cell-based; as to Evaluation of Melanin Production-Inhibition (degree of whiteness of cells): key: ++: The degree of whiteness is higher than that observed for the positive control; +: The degree of whiteness is almost identical to that of the positive control; ±: The degree of whiteness is not higher than that observed for the positive control, but higher than that observed for control; −: The degree of whiteness is almost identical to that observed for the control
Description: The melanin production-inhibitory function of the 5-membered ring-containing triterpenes incorporated into the foods or beverages and orally administered whitening agents of the present invention can be determined by a test method, which makes use of cultured melanocytes. The term “melanocyte(s)” used herein means cells having an ability of producing melanin and when cultivating these cells in the usual manner, the cells are blackened due to the accumulation of melanin pigment thus produced. Contrary to this, if a substance having such a melanin production-inhibitory function is incorporated into this cultivation system, the melanin production is suppressed and the skin is relatively whitened. The melanin production-inhibitory function can likewise be evaluated on the basis of this degree of relative whitening.
A culture medium (2 mL/well) was dispensed to a 6-well plate, a predetermined amount of B-16 melanoma cells was inoculated into the culture medium in each well and the cells were cultured at 37° C. and 5% CO2 by allowing the culture medium to stand. On the next day, a solution of test sample (each 5-membered ring-containing triterpene to be evaluated) having a predetermined concentration was added to and mixed with the culture medium and the cultivation was continued. On the 5th day from the initiation of the cultivation, the culture medium was exchanged and the test sample solution was again added to each well. On the next day, the culture medium was removed from each well to thus recover the cells, followed by washing the cells with PBS (phosphate-buffered physiological saline) and evaluation of the desired function based on the degree of whiteness of the cells. In this connection, the melanin production-inhibitory effect was evaluated by comparing the resulting degree of whiteness with that observed when 450 ppm of vitamin C-magnesium phosphate having a known effect was added instead of the test sample solution (positive control) and that observed when any test sample was not added (control) according to the following criteria.
The evaluation criteria for the degree of whiteness of cells are as follows: […]

[3] = Concentration 2 ppm, rank vs 450 ppm vitamin C-magnesium phosphate
[4] = Concentration 4 ppm, rank vs 450 ppm vitamin C-magnesium phosphate
[5] = Concentration 6 ppm, rank vs 450 ppm vitamin C-magnesium phosphate
[6] = Concentration 8 ppm, rank vs 450 ppm vitamin C-magnesium phosphate
[7] = Concentration 10 ppm, rank vs 450 ppm vitamin C-magnesium phosphate
[8] = compared with 450 ppm of vitamin C-magnesium phosphate

Row | Structure (SMILES) | Evaluation Results CI [1] | Evaluation Results MI [1] | Evaluation Results NC [1] | Evaluation Results SI [1] | Evaluation of Melanin Production-Inhibition (degree of whiteness of cells) [2, 3] | Evaluation of Melanin Production-Inhibition (degree of whiteness of cells) [2, 4] | Evaluation of Melanin Production-Inhibition (degree of whiteness of cells) [2, 5] | Evaluation of Melanin Production-Inhibition (degree of whiteness of cells) [2, 6] | Evaluation of Melanin Production-Inhibition (degree of whiteness of cells) [2, 7] | melanin production-inhibitory function relative to that observed for the positive control/standard [2, 8] | Evaluation of Melanin Production-Inhibition (degree of whiteness of cells) ([2]; Concentration 15 ppm, rank vs 450 ppm vitamin C-magnesium phosphate) | Evaluation Results CI ([1]; 500 mg/kg) | Evaluation Results SI ([1]; 500 mg/kg) | Evaluation of Melanin Production-Inhibition (degree of whiteness of cells) [2] | melanin production-inhibitory function relative to that observed for the positive control/standard [2] | Evaluation of Melanin Production-Inhibition (degree of whiteness of cells) ([2]; Concentration 25 ppm, rank vs 450 ppm vitamin C-magnesium phosphate) | Evaluation of Melanin Production-Inhibition (degree of whiteness of cells) ([2]; Concentration 50 ppm, rank vs 450 ppm vitamin C-magnesium phosphate)
1 | C[C@H]1[C@H](C)CC[C@]2(C(=O)O)CC[C@]3(C)C(=CC[C@@H]4[C@@]5(C)CC[C@H](O)C(C)(C)[C@@H]5CC[C@]43C)[C@H]12 [Ursolic acid] | 4 | 2 | 0 | 1 | ± | + | ++ | ++ | ++ | about 110 times |  |  |  |  |  |  | 
2 | C=C(C)[C@@H]1CC[C@]2(CO)CC[C@]3(C)[C@H](CC[C@@H]4[C@@]5(C)CC[C@H](O)C(C)(C)[C@@H]5CC[C@]43C)[C@@H]12 [Betulin] | 1 | 3 | 1 | 2 | − |  | ± |  | ± | about 40 times |  |  |  |  |  |  | 
3 | C[C@H]1[C@H](C)CC[C@]2(CO)CC[C@]3(C)C(=CC[C@@H]4[C@@]5(C)CC[C@H](O)C(C)(C)[C@@H]5CC[C@]43C)[C@H]12 [Uvaol] | 1 | 4 | 1 | 1 | − |  | − |  | + | about 40 times |  |  |  |  |  |  | 
4 | C=C(C)[C@@H]1CC[C@]2(C(=O)O)CC[C@]3(C)[C@H](CC[C@@H]4[C@@]5(C)CC[C@H](O)C(C)(C)[C@@H]5CC[C@]43C)[C@@H]12 [Betulinic acid] | 2 | 4 | 0 | 1 | − |  | ± |  | + | about 20 times |  |  |  |  |  |  | 
5 | CC(=O)O[C@@H]1C[C@]2(C)[C@H]3CC=C4[C@@H]5CC(C)(C)CC[C@]5(C(=O)O)CC[C@@]4(C)[C@]3(C)CC[C@H]2C(C)(C)[C@H]1OC(C)=O [Compound of Synthetic Example 2, 2,3-O-di-Acetyl-Maslinic Acid] | 2 | 4 | 0 | 1 | ± | ± | + | ++ | ++ | about 75 times | ++ |  |  |  |  |  | 
6 | CC1(C)CC[C@]2(C(=O)O)CC[C@]3(C)C(=CC[C@@H]4[C@@]5(C)C[C@@H](O)[C@H](O)C(C)(C)[C@@H]5CC[C@]43C)[C@@H]2C1 [Purified maslinic acid 2, maslinic acid] |  | 3 | 0 |  |  |  |  |  |  |  |  | 3 | 1 | ± and + and ++ | about 110 times |  | 
7 | CC1(C)CC[C@]2(CO)CC[C@]3(C)C(=CC[C@@H]4[C@@]5(C)CC[C@H](O)C(C)(C)[C@@H]5CC[C@]43C)[C@@H]2C1 [Erythrodiol] | 2 | 2 | 1 | 2 | ± |  | ± |  | ± | about 20 times |  |  |  |  |  | + | +
